Reference: patent US20220218800A1, “BETA-LACTAMASE COMPOSITIONS FOR TREATMENT OF GRAFT VERSUS HOST DISEASE” (Synthetic Biologics, Inc., priority 2019, published 2022)
Like-named read-outs stand apart in the source and are kept apart here.

Columns and labels:
Enterococcus [1] = experiment: 16S sequencing of mouse stool: Enterococcus monodomination, imipenem+cilastatin with or without SYN-006; format: in vivo, mice; details: FIG. 8; for largest bars (genus) in 16S analysis, post-antibiotic: post-abx; for Enterococcus monodominance in stool: vs imipenem+cilastatin only
Protocol: (§1) Next, experiments were conducted to assess the effect of SYN-006 (P2A) administration on modulating and/or reducing Enterococcus monodomination, and specifically, overgrowth of Enterococcus faecium, in imipenem-treated mice.
(§2) Mice received a subcutaneous administration of 100 mg/kg imipenem+cilastatin for two days, with stool samples collected on the third day. […] Stool samples were collected on day 3 and 16S sequencing analysis was performed.

total bacteria = experiment: 16S sequencing of mouse stool: total bacteria copies per gram of stool; format: in vivo, mice; details: FIG. 3
Protocol: (§3) Mice received a subcutaneous administration of 125 mg/kg piperacillin/tazobactam twice per day for two days. […] A control cohort of mice received neither piperacillin/tazobactam nor P3A via oral gavage. Another control cohort of mice received P3A only.
16S sequencing analysis was also performed to evaluate the total bacteria copies present per gram of mouse stool.

[2] = Piperacillin levels in mouse stool after s.c. piperacillin/tazobactam with or without oral P3A; format: in vivo, mice; details: piperacillin/tazobactam 500 mg/kg s.c. twice per day for two days + P3A liquid formulation 10 mg/kg oral gavage twice per day for two days; FIG. 1
Protocol: Mice received a subcutaneous administration of 500 mg/kg piperacillin/tazobactam twice per day for two days. […] A control cohort of mice received neither piperacillin/tazobactam nor P3A via oral gavage.
After 2 days, mouse stool was evaluated for presence of piperacillin.

Enterococcus [3] = experiment: 16S sequencing of stool at day 21 post-transplantation: Enterococcus monodomination (SYN-004); format: in vivo, 129S1 mice
Protocol: This experiment was conducted to assess the effect of SYN-004 administration on modulating and/or reducing Enterococcus monodomination. The experiment was also designed to assess whether SYN-004 administration could prevent the decrease of microbiome diversity in lethally irradiated mice having undergone a bone marrow transplantation.
129S1 mice were lethally irradiated and then transplanted with bone marrow cells (B6 donor bone marrow) at 5M and defined doses of splenic T lymphocytes from C57BL/6 mice at 2M. The mice were divided in three cohorts: (1) a cohort that received administration of saline; (2) a cohort that received administration of piperacillin/tazobactam; and (3) a cohort that received administration of piperacillin/tazobactam (Zosyn, abbreviated as ZO) and SYN-004 (P3A; abbreviated as Blact).
Stool samples were collected at day 21 post-transplantation and 16S sequencing analysis was performed.

129S1 mice [4] = experiment: Survival study of antibiotic-exacerbated GVHD after bone marrow transplantation (P3A); format: in vivo; details: BM+T cells; piperacillin/tazobactam 100 mg/kg s.c. + P3A 20 mg/kg oral gavage three times per week from day 10; endpoint 30 days post-BMT; FIG. 4
Protocol: This experiment was conducted to assess the effect of SYN-004 administration on protecting and/or reducing GVHD severity associated with bone marrow transplantation.
129S1 mice were lethally irradiated and then transplanted with bone marrow cells (B6 donor bone marrow) at 5M and defined doses of splenic T lymphocytes from C57BL/6 mice at 2M. Both of these mice share the MHC-type H2b and thus represent a clinically relevant MHC-matched transplantation model.

[5] = tested on: Firmicutes bacterial phylum; experiment: 16S sequencing of mouse stool: Firmicutes level, piperacillin/tazobactam with or without P3A; format: in vivo, mice; details: FIG. 2
Protocol: as §3

Enterococcus faecium = experiment: Relative abundance of Enterococcus faecium in stool of imipenem-treated mice; format: in vivo; details: imipenem+cilastatin 100 mg/kg s.c. alone or with P2A 1, 10, 50 mg/kg oral gavage; FIG. 9
Protocol: as §1, §2

[6] = tested on: Firmicutes bacterial phylum; details: stool day 3, FIG. 7
Protocol: Experiments were conducted to determine whether a liquid formulation of SYN-006 (e.g., a beta-lactamase in a phosphate-buffered saline solution) could be delivered to the small and large intestine of mice via oral gavage.
Mice received a subcutaneous administration of 100 mg/kg imipenem+cilastatin for two days, with stool samples collected on the third day.
On day 3, mouse stool was collected.

129S1 mice [7] = experiment: Survival study of antibiotic-exacerbated GVHD after bone marrow transplantation (P2A); format: in vivo; details: BM+T cells; imipenem+cilastatin 100 mg/kg s.c. + P2A 50 mg/kg oral gavage three times per week days 10-25; endpoint 40 days post-BMT; p=0.0096, Mantel-Cox test; FIG. 10
Protocol: This experiment was conducted to assess the effect of SYN-006 (P2A) administration on protecting and/or reducing GVHD severity associated with bone marrow transplantation.
129S1 mice were lethally irradiated and then transplanted with bone marrow cells (B6 donor bone marrow) at 5M and defined doses of splenic T lymphocytes from C57BL/6 mice at 2M. Both of these mice share the MHC-type H2^b and thus represent a clinically relevant MHC-matched transplantation model.

[8] = piperacillin/tazobactam 125 mg/kg s.c. + P3A 10 mg/kg oral gavage, twice per day for two days
[9] = piperacillin/tazobactam alone, 125 mg/kg s.c. twice per day for two days

imipenem+cilastatin [reference compound]
largest bars (genus) in 16S analysis, post-antibiotic (Enterococcus [1]; imipenem group (no P2A)): Enterococcus

SYN-004: beta-lactamase with the amino acid sequence of SEQ ID NO: 1; D276N relative to P1A
total bacterial copies present in mouse stool (total bacteria; [8]): decrease was reduced | amount of piperacillin in mouse stool [2]: reduced | largest bars (genus) in 16S analysis (Enterococcus [3]; FIG. 5, Zosyn+SYN-004): Clostridium | largest bars (genus) in 16S analysis (Enterococcus [3]; FIG. 6, BM (bone marrow) group, ZO+Blact): Enterococcus in the first two bars from the left and Clostridium in the next two bars from the left | largest bars (genus) in 16S analysis (Enterococcus [3]; FIG. 6, BM+T cells group, ZO+Blact): Clostridium | Enterococcus monodominance in stool (Enterococcus [3]; piperacillin/tazobactam + SYN-004 vs piperacillin/tazobactam only, day 21 post-transplantation, FIG. 5 and 6): reduced Enterococcus monodominance | survival (mortality), antibiotic-exacerbated GVHD (129S1 mice [4]): reduced antibiotic-exacerbated GVHD | fold abundance of Firmicutes in mouse stool [5, 8]: recovered and protected

piperacillin/tazobactam [reference compound]
total bacterial copies present in mouse stool (total bacteria; [9]): decreased | largest bars (genus) in 16S analysis (Enterococcus [3]; FIG. 5, Zosyn alone): Enterococcus | largest bars (genus) in 16S analysis (Enterococcus [3]; FIG. 6, BM (bone marrow) group, ZO alone): Enterococcus | largest bars (genus) in 16S analysis (Enterococcus [3]; FIG. 6, BM+T cells group, ZO alone): Enterococcus | abundance of Firmicutes in mouse stool [5, 9]: reduced

B1: SYN-006: beta-lactamase polypeptide with the sequence of SEQ ID NO: 6 (protein)
chain: ETGTISISQLNKNVWVHTELGYFNGEAVPSNGLVLNTSKGLVLVDSSWDNKLTKELIEMVEKKFQKRVTDVIITHAHADRIGGITALKERGIKAHSTALTAELAKNSGYEEPLGDLQTITSLKFGNTKVETFYPGKGHTEDNIVVWLPQYQILAGGCLVKSAEAKDLGNVADAYVNEWSTSIENVLKRYGNINSVVPGHGEVGDKGLLLHTLDLLK
modifications: Synthetic polymer.
overgrowth (relative abundance) of Enterococcus faecium in mouse stool (Enterococcus faecium): prevents overgrowth of Enterococcus faecium | fold abundance of Firmicutes in mouse stool ([6]; imipenem+cilastatin 100 mg/kg s.c. for two days + P2A 10 mg/kg oral gavage twice per day): recovered and protected | fold abundance of Firmicutes in mouse stool ([6]; imipenem+cilastatin 100 mg/kg s.c. for two days + P2A 50 mg/kg oral gavage twice per day): recovered and protected | largest bars (genus) in 16S analysis, post-antibiotic (Enterococcus [1]; imipenem+P2A (1 mg) group): Enterococcus | largest bars (genus) in 16S analysis, post-antibiotic (Enterococcus [1]; imipenem+P2A (10 mg) group): Clostridium | largest bars (genus) in 16S analysis, post-antibiotic (Enterococcus [1]; imipenem+P2A (50 mg) group): Lactobacillus and Clostridium | Enterococcus monodominance in stool (Enterococcus [1]; imipenem+cilastatin 100 mg/kg s.c. + SYN-006 10 mg/kg oral gavage twice per day for two days): reduced Enterococcus monodominance | Enterococcus monodominance in stool (Enterococcus [1]; imipenem+cilastatin 100 mg/kg s.c. + SYN-006 50 mg/kg oral gavage twice per day for two days): reduced Enterococcus monodominance | survival (mortality), antibiotic-exacerbated GVHD (129S1 mice [7]): reduced antibiotic-exacerbated GVHD
